Experiment: Human HepG2 cell viability assay in 384 well format
Assay type: toxicity, cell-based
Set-up: dose 125 nL, time 70.5 hour; cytotoxicity at 70.5 h: concentration not given beside the values
Settings: HepG2 cells, read-out: Inhibition

SMILES	cytotoxicity at 70.5 h
O=C1CN(C(=O)c2cc3c(F)cc(Br)cc3[nH]2)CCN1	-4.59%
COc1cccc(CCC(=O)Nc2c(C)nn(C)c2C)c1OC	-10.8%
CC1(C)COCCN1C(=O)Cc1cc(Cl)c2c(c1)OCCO2	0.881%
Cc1nc(CNCC2CNc3ccnn3C2)cs1 (stereo unspecified)	-7.55%
COc1ccc2cc(C(=O)NCCNc3ccc(C)nn3)[nH]c2c1	-5.63%
Cc1noc(C)c1CNCC1CNc2ccnn2C1 (stereo unspecified)	-7.43%
CCc1nnc2n1CCN(C(=O)C(C)Oc1cccc(C#N)c1)C2 (stereo unspecified)	12.9%
Cc1cccc(-c2noc(Cn3nc(C(N)=O)ccc3=O)n2)c1	-4.08%
CCc1ccc(-c2noc(Cn3nc(C(N)=O)ccc3=O)n2)cc1	-6.4%
Cc1nn(C)c(C)c1C1CCCN1CC(=O)N(C)c1nccs1 (stereo unspecified)	-3.66%
CN(CCOc1ccc(C#N)cc1)CC1CCS(=O)(=O)C1 (stereo unspecified)	-9.8%
CC(=O)NCCCNC(=O)N1CCN(c2cc(F)ccc2F)CC1	-6.3%
Cc1cc(C2CCCN(Cc3nnc(Cc4ccccc4)o3)C2)n[nH]1 (stereo unspecified)	-9.79%
C[S+]([O-])CCNC(=O)N1CCN(c2cc(F)ccc2F)CC1 (stereo unspecified)	13%
Cc1cc(COC(=O)[C@@H]2Cc3ccccc3CN2S(C)(=O)=O)no1	1.54%
Cc1ccc(CNc2cc3c(cc2Cl)NC(=O)CO3)cc1C	-5.39%
Cc1ccc(CNCc2nccn2C)c(OC(C)(C)C)c1	-7.39%
Cc1ccc(CNCc2nccn2C)c(OCC2CC2)c1	7.03%
CC1COCCN1C(=O)Cc1cc(Cl)c2c(c1)OCCCO2 (stereo unspecified)	-14.3%
CCSc1cccc(NCc2cccnc2)c1	-16.6%
COc1c(C2CCCN2CC(=O)N(C)Cc2ccco2)c(C)nn1C (stereo unspecified)	-5.02%
COc1ccccc1C(=O)NCCC(=O)Nc1c(C)nn(C)c1C	-12.6%
COCCCNC(=O)NCc1nc(C)c(C)o1	-7.01%
CN(Cc1ccccc1)c1ccc(C(F)(F)F)cn1	-3.92%

SMILES	cytotoxicity at 70.5 h
CSc1ccccc1NC(=O)CCN1CCC(C(=O)N(C)C)CC1	2.74%
O=C1COc2cc(S(=O)(=O)NCCC3=CCCCC3)c(Br)cc2N1	-8%
CN(Cc1ccc(C(N)=O)cc1)c1ccc(C(F)(F)F)cn1	-2.07%
Cn1cc(C(=O)N2CCCC2c2ccc3c(c2)OCCO3)ccc1=O (stereo unspecified)	-4.05%
CC1CCc2sc(C(=O)Nc3cnn(C)c3)cc2C1 (stereo unspecified)	-2.28%
Cn1ccnc1CCNS(=O)(=O)c1cccc(Br)c1	-2.62%
CC(C)(C(=O)N1CCC(C(N)=O)C1)c1ccccc1F (stereo unspecified)	-2.99%
CN(C)CCN(Cc1ccccc1)C(=O)CN1CCCNC1=O	-0.477%
CCN(CC)C(=O)CNC(=O)c1c[nH]c2ccc(OC)cc12	3.81%
Cc1cc(C)n(C2CN(Cc3ccc(C(=O)N4CCCC4)cc3)C2)n1	-1.2%
CNC(=O)c1cccc(NCCOc2ccc(CC#N)cc2)c1C	-1.82%
CC(C)(C(=O)N1CCC(CS(N)(=O)=O)CC1)c1ccccc1F	1.82%
Cn1nc2c(cc1=O)CN(c1nc3ccccc3s1)CC2	4.78%
COc1c(NS(=O)(=O)c2cc(C)ccc2C)c(C)nn1C	-63.5%
O=C(c1cc(-n2cccn2)ccn1)N1CCOc2ncccc21	-1.03%
O=C(c1cc(-n2cccn2)ccn1)N1CCOc2ccncc21	-0.581%
O=C(c1cc(-n2cccn2)ccn1)N1CCOc2ccc(F)cc21	0.748%
Cn1cc(CNC(=O)c2cc3c(s2)CCCCC3)cn1	-3.43%
NC(=O)C1CN(C(=O)C2(c3ccc(F)cc3F)CCCC2)CCO1 (stereo unspecified)	-1.48%
CC(=O)N(C)Cc1ccccc1NCc1c(C)cccc1C	-3.43%
c1ccc2nc(N3CCCC3)c(NCc3nnc4n3CCC4)nc2c1	-9.07%
CNC(=O)c1cccnc1NCCOc1ccc(CC#N)cc1	-0.53%
Cn1cc(CNC2CCc3ncnn3C2)c(-c2cccnc2)n1 (stereo unspecified)	-5.95%
CCc1ccc(CNC2(c3ccc(F)cc3)CCOCC2)o1	-5.73%

SMILES	cytotoxicity at 70.5 h
CCCc1n[nH]c(C2CN(CC(=O)N(C)Cc3ccco3)CCO2)n1 (stereo unspecified)	-6.63%
CC(C)c1n[nH]c(C2CN(CC(=O)N(C)Cc3ccco3)CCO2)n1 (stereo unspecified)	-3.93%
Cn1cc(CNC2CCc3ncnn3C2)c(-c2ccncc2)n1 (stereo unspecified)	-1.76%
Cc1noc(C)c1CN(C)Cc1csc(-c2ccc(C(C)C)cc2)n1	19.9%
N#Cc1ncn(CCS(=O)(=O)c2ccc(Cl)cc2)n1	2.53%
Cc1cc(NC(=O)NCc2ccc(C)s2)no1	-8.73%
CC(C)Oc1ccc(C(=O)NCc2ccnc(N3CCCC3)c2)cn1	-10.1%
CCn1cnnc1CNC(=O)N(C)Cc1ccc(Cl)cc1Cl	3.74%
O=C(NCCc1cccc(Cl)c1)C1CCOCC1	0.784%
COC(=O)N1CCCC(C(=O)Nc2ccccc2CN2CCCC2)C1 (stereo unspecified)	-0.192%
CCN1CCN(C2CCN(C(C(N)=O)c3ccccc3)CC2)C1=O (stereo unspecified)	1.23%
CN(C)C1CCN(C(=O)C2SCCc3ccccc32)CC1 (stereo unspecified)	-6.27%
CS(=O)(=O)CCCNC1CCCN(Cc2noc(C3CC3)n2)C1 (stereo unspecified)	-7.07%
CC(C)NC(=O)CS(=O)(=O)Cc1coc(-c2ccc(F)cc2)n1	-17.8%
CS(=O)(=O)NCCC1CCCCN1C(=O)NCc1ccccn1 (stereo unspecified)	-18.6%
CCN1CCN(C(=O)NCc2ccccc2Cn2cncn2)CC1	19.4%
CS(=O)(=O)CCCNC(=O)C1(c2cccc(Cl)c2)CC1	-12.8%
CC(=O)N1CCN(C(=O)CN(C)c2ccc(Cl)cn2)CC1	-10.3%
Cc1ncc(CN2CCC(c3nc4cc(Cl)ccc4o3)CC2)s1	22.3%
CN1CCCN(C(=O)NCc2ccccc2Cn2cncn2)CC1	-2.94%
CC(=O)N1CCN(C(=O)NCc2ccccc2Cn2cncn2)CC1	-14.9%
COc1cc(C(=O)NS(=O)(=O)c2cncc(Br)c2)ccc1C	-19%
CC(C)C(=O)N1CCCC1C(=O)Nc1cc(C(F)(F)F)ccc1F (stereo unspecified)	-17.3%
CCS(=O)(=O)CCNC(=O)C1(c2cccc(Cl)c2)CC1	15.5%

SMILES	cytotoxicity at 70.5 h
COC(=O)[C@H](C)NC(=O)COc1nn(C)c2nc(C)cc(C)c12	-16.3%
Cc1cc(C)c2c(OCC(=O)N(C)CC(=O)NC(C)C)nn(C)c2n1	-19.9%
Cc1cc(NC(=O)CN2CCc3c(nc(C(C)C)n3C)C2)n(C)n1	-16.7%
Cc1nnc(NC(=O)CN2CCc3c(nc(C(C)C)n3C)C2)s1	-8.19%
CN(CC(=O)N1CCN(CC(C)(C)O)CC1)c1ccc(Cl)cn1	-17.3%
CCC(C)(CC)NC(=O)COc1nn(C)c2nc(C)cc(C)c12	14.2%
Cc1n[nH]c(C)c1NC(=O)CN1CCc2c(nc(C(C)C)n2C)C1	-16.4%
COCCOCC(C)NC(=O)COc1nn(C)c2nc(C)cc(C)c12 (stereo unspecified)	-11%
CC(C)C(=O)N1CCCC1C(=O)Nc1ccc(F)c(F)c1 (stereo unspecified)	-14.3%
COc1ccc(C(=O)NS(=O)(=O)c2cncc(Br)c2)cc1	-16.9%
CNC(=O)Cc1coc(-c2ccc(F)cc2)n1	-16.9%
COc1cc(C(=O)NS(=O)(=O)c2cncc(Br)c2)cc(OC)c1C	-8.02%
Cc1ccc(F)c(S(=O)(=O)Nc2cn(C)cc(Br)c2=O)c1	-1.44%
Cn1cc(Br)c(=O)c(NS(=O)(=O)c2ccc3c(c2)CCC3)c1	2.07%
CN(CCc1cccs1)C(=O)Nc1cnn(CC2CCCO2)c1 (stereo unspecified)	-16%
CCN(CC)C(=O)CNC(=O)N1CCC(c2ccc(OC)cc2)C1 (stereo unspecified)	12.9%
C1CCC(NC2CCCN(Cc3noc(C4CC4)n3)C2)C1 (stereo unspecified)	-15.1%
COc1cccc(C2(CNC(C)c3nnc(C)o3)CCCC2)c1 (stereo unspecified)	-13.9%
O=C(c1ccn(-c2cccc(F)c2)n1)N1CCN(CCO)CC1	-5.78%
CCc1noc(CNc2c(F)cccc2-n2cccn2)n1	-8.2%
CC(C)CNC(=O)Nc1cccc(CN2CCOC2=O)c1	-6.71%
Cc1cccc(NC(=O)C2CCCN2C(=O)c2ccco2)c1C (stereo unspecified)	11.4%
O=C1CN(Cc2nnc(-c3ccc(Cl)cc3)o2)CCN1	-9.87%
CC(Cn1cccn1)NC(=O)Nc1ccc(N2CCCCC2)nc1 (stereo unspecified)	-7.26%

SMILES	cytotoxicity at 70.5 h
Cc1ccc(NC(=O)NC(C)Cn2cccn2)cc1 (stereo unspecified)	-11.9%
CC(NC(=O)N(C)Cc1ccc2c(c1)OCCO2)c1nncn1C (stereo unspecified)	-0.921%
Cc1cc(NC(=O)NCCc2ccccc2)n(C)n1	-7.09%
CC(C)(O)CN1CCN(C(=O)c2ccn(-c3cccc(F)c3)n2)CC1	-4.39%
CCC(O)CN1CCN(C(=O)c2ccn(-c3cccc(F)c3)n2)CC1 (stereo unspecified)	-5.3%
COC(=O)c1ccc(NC(=O)[C@@H]2CCCN2C(=O)c2ccco2)s1	-7.02%
Cc1cc(NC(=O)CN2CCc3nn(C)c(=O)cc3C2)no1	-9.67%
CSC(C)(C)CNC(=O)Nc1cccc(-c2nccn2C)c1	-3.46%
O=C(CSc1ccc2c(c1)OCCO2)NS(=O)(=O)c1ccccc1Cl	-4.64%
O=C(CSc1ccc2c(c1)OCCO2)NS(=O)(=O)c1ccccc1Br	-6.54%
COc1ccc(-c2nc(CN3CCCS3(=O)=O)co2)cc1	14.5%
CN1CCN(c2nc(-c3cnn(C)c3)cs2)CC1	-6.42%
CC(C)(C)c1nnc(CNc2c(F)cccc2-n2cccn2)o1	-8.76%
O=S1(=O)CCCN1Cc1coc(-c2ccc(C(F)(F)F)cc2)n1	11%
CCC(CC)C(O)CNC(=O)Nc1cccc(-c2nccn2C)c1 (stereo unspecified)	-3.63%
CC(=O)NCCc1ccc(S(=O)(=O)N(C)C(C)CC(C)C)s1 (stereo unspecified)	-7.26%
OCCN1CCN(Cc2cc3c(cc2Br)OCCO3)CC1	20.1%
CCc1n[nH]c(C2CN(C(=O)Cc3ccc(C)nc3)CCO2)n1 (stereo unspecified)	9.01%
CC(C#N)CSc1ccccc1NCC(=O)NC(C1CC1)C1CC1 (stereo unspecified)	8.68%
CCNc1nnc(SCC(=O)N2CCN(Cc3ccc(Cl)s3)CC2)s1	-0.322%

From ChEMBL document CHEMBL3507680, “University of Dundee, Gates Library screen for HepG2 cell viability”
